Source: PMC11434749, “In Vitro Interaction of Binuclear Copper Complexes with Liver Drug-Metabolizing Cytochromes P450” (Pharmaceuticals, 2024)

Assays:
CYP2D6 = molecular target: T1, CYP2D6 (Homo sapiens, UniProt P10635); assay: Inhibition of CYP2D6 activity (bufuralol 1′-hydroxylation) in human liver microsomes; assay type: in vitro ADME; details: HLM, bufuralol 15 µmol·L^−1, preincubation 30 min at 37 °C, Mean ± S.D.
T1 construct: Pooled human liver microsomes were obtained from Biopredic (Rennes, France); tissue Biopredic (Rennes, France); host or cells: pooled human liver microsomes, seventeen donors
T1 sequence (P10635 whole entry): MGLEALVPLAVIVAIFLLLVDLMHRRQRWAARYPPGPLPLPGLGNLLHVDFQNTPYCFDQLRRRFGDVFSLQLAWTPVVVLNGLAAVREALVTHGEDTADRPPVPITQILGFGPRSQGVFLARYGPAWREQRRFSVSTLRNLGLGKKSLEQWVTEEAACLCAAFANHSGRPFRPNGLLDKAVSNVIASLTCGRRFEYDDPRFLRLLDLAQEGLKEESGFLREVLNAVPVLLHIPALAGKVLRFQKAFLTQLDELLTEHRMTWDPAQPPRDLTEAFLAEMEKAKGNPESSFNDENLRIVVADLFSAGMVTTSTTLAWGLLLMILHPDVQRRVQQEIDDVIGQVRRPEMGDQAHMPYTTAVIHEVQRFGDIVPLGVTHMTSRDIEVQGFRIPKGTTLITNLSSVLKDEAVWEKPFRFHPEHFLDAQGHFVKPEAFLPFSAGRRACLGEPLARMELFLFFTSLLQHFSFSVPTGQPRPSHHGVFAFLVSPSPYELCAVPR
Description: (§1) The following enzyme assays were performed to determine the activities of specific CYP enzymes: CYP1A2, 7-ethoxyresorufin O-deethylation; CYP2A6, coumarin 7-hydroxylation; CYP2B6, 7-ethoxy-4-(trifluoromethyl) coumarin (EFC) O-deethylation; CYP2C8 paclitaxel 6α-hydroxylation; CYP2C9, diclofenac 4′-hydroxylation; CYP2C19, diazepam N-desmethylation; CYP2D6, bufuralol 1′-hydroxylation; CYP2E1, chlorzoxazone 6-hydroxylation; and CYP3A4/5, testosterone 6β-hydroxylation. […]
(§2) For the determination of metabolites formed from specific substrates, a Prominence LC-20A HPLC system (Shimadzu, Kyoto, Japan) with UV detection or fluorescence detection was used (see Table 2). […]
(§3) Initially, for each enzyme assay, a preliminary experiment was carried out to determine Km and Vmax to obtain the appropriate concentration of the specific substrates for the inhibition experiments (the substrate concentration was chosen in the range corresponding to the value of the Km for each particular reaction). Data were analyzed using the Sigma plot software, as mentioned above, with spectral studies. […] In all cases, the inhibition of individual CYP activities was evaluated by plotting the respective remaining activity against the inhibitor concentration.

E. faecalis = test system: E. faecalis; parameters: method as in doi:10.1016/j.ica.2022.121273; details: Gram-positive; cited from earlier work
CYP1A2 = molecular target: T2, CYP1A2 (Homo sapiens, UniProt P05177); assay: Inhibition of CYP1A2 activity (7-ethoxyresorufin O-deethylation) in human liver microsomes; assay type: in vitro ADME; details: HLM, 7-ethoxyresorufin 1.3 µmol·L^−1, preincubation 30 min at 37 °C, Mean ± S.D.
T2 construct: Pooled human liver microsomes were obtained from Biopredic (Rennes, France); tissue Biopredic (Rennes, France); host or cells: pooled human liver microsomes, seventeen donors
T2 sequence (P05177 1-516): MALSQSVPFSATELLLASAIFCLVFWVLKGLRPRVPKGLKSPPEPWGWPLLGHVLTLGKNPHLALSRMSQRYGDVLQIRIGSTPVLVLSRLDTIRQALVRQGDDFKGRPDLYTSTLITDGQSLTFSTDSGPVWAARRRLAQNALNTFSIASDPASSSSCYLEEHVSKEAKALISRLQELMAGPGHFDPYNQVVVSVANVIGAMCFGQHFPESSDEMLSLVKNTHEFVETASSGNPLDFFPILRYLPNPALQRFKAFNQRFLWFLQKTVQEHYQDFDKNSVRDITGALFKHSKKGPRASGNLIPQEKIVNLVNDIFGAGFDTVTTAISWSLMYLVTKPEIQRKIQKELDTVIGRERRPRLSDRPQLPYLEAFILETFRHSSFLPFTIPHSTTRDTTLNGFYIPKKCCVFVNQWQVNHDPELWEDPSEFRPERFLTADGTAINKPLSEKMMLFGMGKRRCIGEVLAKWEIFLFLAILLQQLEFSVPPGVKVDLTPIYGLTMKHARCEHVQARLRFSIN
Description: as §1, §2, §3

E. coli = test system: E. coli; parameters: method as in doi:10.1016/j.ica.2022.121273; details: Gram-negative; cited from earlier work
P. aeruginosa = test system: P. aeruginosa; parameters: method as in doi:10.1016/j.ica.2022.121273; details: Gram-negative; cited from earlier work
CYP2E1 = molecular target: T3, CYP2E1 (Homo sapiens, UniProt P05181); assay: Inhibition of CYP2E1 activity (chlorzoxazone 6-hydroxylation) in human liver microsomes; assay type: in vitro ADME; details: HLM, chlorzoxazone 30 µmol·L^−1, preincubation 30 min at 37 °C, Mean ± S.D.
T3 construct: Pooled human liver microsomes were obtained from Biopredic (Rennes, France); tissue Biopredic (Rennes, France); host or cells: pooled human liver microsomes, seventeen donors
T3 sequence (P05181 whole entry): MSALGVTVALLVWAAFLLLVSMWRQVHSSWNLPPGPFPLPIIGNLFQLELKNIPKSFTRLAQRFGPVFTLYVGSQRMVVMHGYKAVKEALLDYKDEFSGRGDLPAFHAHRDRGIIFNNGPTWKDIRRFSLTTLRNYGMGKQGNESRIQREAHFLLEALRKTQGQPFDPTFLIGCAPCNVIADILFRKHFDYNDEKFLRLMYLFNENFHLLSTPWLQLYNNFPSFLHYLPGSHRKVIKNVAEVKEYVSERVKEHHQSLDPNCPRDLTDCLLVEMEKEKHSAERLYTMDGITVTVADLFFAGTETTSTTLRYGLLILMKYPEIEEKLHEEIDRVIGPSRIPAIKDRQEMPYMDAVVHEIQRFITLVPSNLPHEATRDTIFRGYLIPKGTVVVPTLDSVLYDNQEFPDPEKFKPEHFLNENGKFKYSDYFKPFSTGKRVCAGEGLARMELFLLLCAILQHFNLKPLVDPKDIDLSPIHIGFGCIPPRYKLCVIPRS
Description: as §1, §2, §3

CYP3A4 = assay: Inhibition of CYP3A4 activity (testosterone 6β-hydroxylation) in human liver microsomes; assay type: in vitro ADME; details: HLM, testosterone 100 µmol·L^−1, preincubation 30 min at 37 °C, Mean ± S.D.
Description: as §1, §2, §3

CYP2C8 = molecular target: T4, CYP2C8 (Homo sapiens, UniProt P10632); assay: Inhibition of CYP2C8 activity (paclitaxel 6α-hydroxylation) in human liver microsomes; assay type: in vitro ADME; details: HLM, paclitaxel 50 µmol·L^−1, preincubation 30 min at 37 °C, Mean ± S.D.
T4 construct: Pooled human liver microsomes were obtained from Biopredic (Rennes, France); tissue Biopredic (Rennes, France); host or cells: pooled human liver microsomes, seventeen donors
T4 sequence (P10632 1-490): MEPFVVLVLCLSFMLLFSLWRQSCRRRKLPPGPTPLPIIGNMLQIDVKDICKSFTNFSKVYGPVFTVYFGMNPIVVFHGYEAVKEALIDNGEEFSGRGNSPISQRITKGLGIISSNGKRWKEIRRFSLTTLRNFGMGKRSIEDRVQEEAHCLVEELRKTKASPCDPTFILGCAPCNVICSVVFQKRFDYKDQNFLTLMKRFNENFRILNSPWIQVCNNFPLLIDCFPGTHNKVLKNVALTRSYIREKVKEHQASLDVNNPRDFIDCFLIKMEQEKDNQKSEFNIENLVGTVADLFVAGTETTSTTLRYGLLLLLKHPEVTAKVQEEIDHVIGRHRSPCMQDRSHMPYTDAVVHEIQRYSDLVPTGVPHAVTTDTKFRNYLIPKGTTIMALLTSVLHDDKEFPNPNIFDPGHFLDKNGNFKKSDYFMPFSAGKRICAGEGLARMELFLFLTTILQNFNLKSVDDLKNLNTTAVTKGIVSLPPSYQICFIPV
Description: as §1, §2, §3

Row | Structure (SMILES) | IC50 (CYP2D6) | MIC E. faecalis (E. faecalis) | IC50 (CYP1A2) | MIC E. coli (E. coli) | MIC P. aeruginosa (P. aeruginosa) | IC50 (CYP2E1) | IC50 (CYP3A4) | IC50 (CYP2C8)
1 | CN(C)CCN(C)CCN(C)C.CN(C)CCN(C)CCN(C)C.O.O.O=C([O-])/C=C/C(=O)[O-].[Cu+2].[Cu+2].[O-][Cl+3]([O-])([O-])[O-].[O-][Cl+3]([O-])([O-])[O-] [Complex No. 5, [Cu2(μ-fu)(pmdien)2(H2O)2](ClO4)2] | 12.4 ± 0.21 µM | 4.22 µg/mL | 24.97 ± 0.22 µM | 8.44 µg/mL | 2.11 µg/mL | 12.5 ± 0.18 µM | 3.72 ± 0.23 µM | 3.66 ± 0.19 µM
2 | CN(C)CCN(C)CCN(C)C.CN(C)CCN(C)CCN(C)C.O.O.O=C([O-])CCSSCCC(=O)[O-].[Cu+2].[Cu+2].[O-][Cl+3]([O-])([O-])[O-].[O-][Cl+3]([O-])([O-])[O-] [Complex No. 6, [Cu2(μ-dtdp)(pmdien)2(H2O)2](ClO4)2] | 6.33 ± 0.22 µM | 8.44 µg/mL | 25.2 ± 0.29 µM | 16.88 µg/mL | 1.05 µg/mL | 6.59 ± 0.18 µM | 3.62 ± 0.27 µM | 3.4 ± 0.1 µM
